Results published in US20230279233A1, “ATROROSINS AS FOOD COLORS” (Chromologics ApS, priority 2020, published 2023).
Values joined by “and” are separate entries in the source; they are usually repeats but may differ in a detail not shown here. Equal values may be shown once. Read-outs that look alike come from different tables or passages of the source.

Tests used:
[1] = Pharmacokinetic profile in rats, IV and PO; type: in vivo; settings: rat, IV 1 mg/kg
[2] = background, literature; cited from earlier work
[3] = pH stability in McIlvaine buffer pH 2.2-7.2, absorption maxima by spectrophotometer; type: physicochemical
[4] = Pharmacokinetic profile in rats, IV and PO; type: in vivo; settings: rat, IV 1 mg/kg; for Cmax: read-out: C0/Cmax
Method: Resulting powder from example 2 was sent to Evotec to asses for the pharmacokinetic profile of atrorosin. 6 rats were used, 3 rats for IV injection of atrorosin and 3 rats for PO. The rats were injected or given through mouth gauge 2 mg/kg, and blood samples were taken at regular intervals.
In comparison to example 10, similar carminic acid was also sent to Evotec to assess the pharmacokinetic profile.

[5] = tested on: TA 98; experiment: mini-Ames (AMES MPF) genotoxicity; type: cell-based
Method: Resulting powder from example 2 was sent to Cyprotox to asses for genotoxicity in a mini-Ames experiment. 43.2 mg of atrorosin was sent to Cyprotox. Mini-Ames test were conducted under the guidelines of OECD.
In comparison to the atrorosin tested above, similar 46.4 mg of carminic acid was also sent to Cyprotox to assess for genotoxicity.

[6] = pH stability in McIlvaine buffer pH 2.2-7.2, absorption maxima by spectrophotometer; type: physicochemical; remark: listed apart in the source
Method: In comparison to the pH data for Atrorosin-E of Table 1, the absorption spectrum of carminic acid is determined as above. Its absorption maxima are 495 nm, 525 nm, 565 nm. The pH stability data for carminic acid is shown below in Table 2: […]

[7] = Temperature stability at 60° C. and 80° C. in McIlvaine buffer pH 5, absorption maxima
Method: Buffer and atrorosin was mixed for 5 minutes before the solutions were subjected heating in an incubator at 60° C. and 80° C. to colorimetric analysis using spectrophotometer. The absorption maxima at 425 nm and 490 nm were determined in a microtiter plate with a 0.45 cm cell length with buffer as blank. In comparison to the data in Table 3, the absorption spectrum of betanin is determined as above. […] In comparison to Table 5, the absorption spectrum of betanin is determined as above.

Structure (SMILES): Cc1c(C(=O)O)c(O)cc2c1C(=O)c1c(O)c([C@@H]3O[C@H](CO)[C@@H](O)[C@H](O)[C@H]3O)c(O)c(O)c1C2=O [carminic acid, reference compound]
- CL/CL_F (plasma clearance) ([1]; Mean): 1.3 ± 0.1 mL/min/kg
- Tlast ([1]; individual rats 1-3): 24 h
- Vdss ([1]; individual rats 1-3): 0.3 L/kg
- AUC0-t ([1]; individual rats 1-3, 1 mg/kg): 11431 ng · hr/mL and 12535 ng · hr/mL and 13332 ng · hr/mL and 23216 nM · hr and 25457 nM · hr and 27076 nM · hr
- temperature stability (in words) [2]: good temperature stability
- Absorption at 565 nm ([3]; pH 2.2): 0.771
- Absorption at 565 nm ([3]; pH 3.5): 1.365
- Absorption at 525 nm ([3]; pH 5): 1.834
- Absorption at 565 nm ([3]; pH 5): 1.852
- Absorption at 495 nm ([3]; pH 7.2): 1.625
- C0/Cmax ([4]; Mean): 8213 ng/mL
- Clast ([4]; Mean): 13.4 ng/mL
- MRT ([4]; Mean): 3.5 h
- Vdss ([4]; Mean): 0.3 L/kg
- t½ ([4]; Mean): 3.5 ± 0.2 h
- Cmax ([4]; Mean): 16.7 µM
- AUCinf ([4]; individual rats 1-3, 1 mg/kg): 11497 ng · hr/mL and 12597 ng · hr/mL and 13408 ng · hr/mL and 23350 nM · hr and 25583 nM · hr and 27230 nM · hr
- C0/Cmax ([4]; individual rats 1-3, 1 mg/kg): 7095 ng/mL and 6542 ng/mL and 11003 ng/mL
- CL/CL_F ([4]; individual rats 1-3, 1 mg/kg): 1.4 mL/min/kg and 1.3 mL/min/kg and 1.2 mL/min/kg
- Clast ([4]; individual rats 1-3, 1 mg/kg): 12.3 ng/mL and 12.7 ng/mL and 15.3 ng/mL
- MRT ([4]; individual rats 1-3, 1 mg/kg): 3.2 h and 3.3 h and 3.9 h
- t½ ([4]; individual rats 1-3, 1 mg/kg): 3.7 h and 3.4 h (2×)
- Cmax ([4]; individual rats 1-3, 1 mg/kg): 14.4 µM and 13.3 µM and 22.3 µM
- Fold increase (over baseline) ([5]; TA 98 +S9, 62.5 μg/ml): 0.42
- mean # pos. Wells ([5]; TA 98 +S9, 62.5 μg/ml): 1.00
- Fold increase (over baseline) ([5]; TA 98 +S9, 125 μg/ml): 0.28
- mean # pos. Wells ([5]; TA 98 +S9, 125 μg/ml): 0.67
- Fold increase (over baseline) ([5]; TA 98 +S9, 250 μg/ml): 0.14
- mean # pos. Wells ([5]; TA 98 +S9, 250 μg/ml): 0.33
- Fold increase (over baseline) ([5]; TA 98 +S9, 500 μg/ml): 0.00
- mean # pos. Wells ([5]; TA 98 +S9, 500 μg/ml): 0.00
- Fold increase (over baseline) ([5]; TA 98 +S9, 1000 μg/ml): 0.00
- mean # pos. Wells ([5]; TA 98 +S9, 1000 μg/ml): 0.00
- Fold increase (over baseline) ([5]; TA 98 +S9, 2000 μg/ml): 0.14
- mean # pos. Wells ([5]; TA 98 +S9, 2000 μg/ml): 0.33
- Fold increase (over baseline) ([5]; TA 98 −S9, 62.5 μg/ml): 0.25
- mean # pos. Wells ([5]; TA 98 −S9, 62.5 μg/ml): 0.33
- Fold increase (over baseline) ([5]; TA 98 −S9, 125 μg/ml): 0.51
- mean # pos. Wells ([5]; TA 98 −S9, 125 μg/ml): 0.67
- Fold increase (over baseline) ([5]; TA 98 −S9, 250 μg/ml): 0.25
- mean # pos. Wells ([5]; TA 98 −S9, 250 μg/ml): 0.33
- Fold increase (over baseline) ([5]; TA 98 −S9, 500 μg/ml): 0.25
- mean # pos. Wells ([5]; TA 98 −S9, 500 μg/ml): 0.33
- Fold increase (over baseline) ([5]; TA 98 −S9, 1000 μg/ml): 0.00
- mean # pos. Wells ([5]; TA 98 −S9, 1000 μg/ml): 0.00
- Fold increase (over baseline) ([5]; TA 98 −S9, 2000 μg/ml): 0.00
- mean # pos. Wells ([5]; TA 98 −S9, 2000 μg/ml): 0.00
- genotoxic effects (in words) ([5]; mini-Ames study): do not exert any genotoxic effects
- Absorption at 495 nm ([6]; pH 2.2): 0.859
- Absorption at 525 nm ([6]; pH 2.2): 0.88
- Absorption at 495 nm ([6]; pH 3.5): 1.289
- Absorption at 525 nm ([6]; pH 3.5): 1.404
- Absorption at 495 nm ([6]; pH 5): 1.561
- Absorption at 525 nm ([6]; pH 7.2): 2.171
- Absorption at 565 nm ([6]; pH 7.2): 2.23

Structure (SMILES): O=C(O)C1=C/C(=C/C=[N+]2/c3cc(O)c(OC4OC(CO)[C@@H](O)C(O)C4O)cc3CC2C(=O)[O-])CC(C(=O)O)N1 (stereo in doubt) [betanin, reference compound]
- heat stability (in words) ([7]; 60° C. over 24 hours): degrades significantly
- Absorption at 530 nm ([7]; 60° C., 1 H): 0.26
- Absorption at 530 nm ([7]; 60° C., 2 H): 0.2
- Absorption at 530 nm ([7]; 60° C., 3 H): 0.17
- Absorption at 530 nm ([7]; 60° C., 24 H): 0.05
- Absorption at 530 nm ([7]; 60° C., T0: Start): 0.29
- heat stability (in words) ([7]; 80° C. over 3 hours): degrades significantly
- Absorption at 530 nm ([7]; 80° C., 1 H): 0.07
- Absorption at 530 nm ([7]; 80° C., 2 H): 0.05
- Absorption at 530 nm ([7]; 80° C., 3 H): 0.03
- Absorption at 530 nm ([7]; 80° C., 15 min): 0.19
- Absorption at 530 nm ([7]; 80° C., T0: Start): 0.28
- temperature stability (in words) [2]: lack of stability over 40 °C
